Assay [1] concerns L-dopa-induced dyskinesia. The experiment in a line: L-dopa-induced dyskinesia (AIMs) in 6-OHDA lesioned rats. It counts as in vivo, rat. The protocol:
Adult male Sprague-Dawley rats (Harlan labs), ˜3 months old and weighing 250-275 grams, were housed in groups of 2 in a temperature- and humidity-controlled colony room that was maintained on a 12 hour light/dark cycle. Food and water were available ad libitum throughout the experiment with the exception that animals were food fasted for 12 hours prior to the surgical (6-OHDA lesion) procedure.
Prior to surgery, all animals were anesthetized and placed in the prone position. The hair was clipped from the head and the surgical site aseptically washed with betadine and alcohol. The animals head was fixed during surgery by a stereotaxic device and continuously anesthetized using isoflurane (1.5-2.0%) via a nosecone attached to the stereotaxic frame. […] The animals were monitored by the surgeon for suitable hemostasis and respiration. […]
For quantification of L-DOPA-induced AIMs, rats were placed in transparent plastic cages and observed during the first minute of every 30-minute period in the 2 hours following the injection of L-DOPA. […]
Each of the four subtypes was scored on a severity scale from 0 to 4. • 0=absent • 1=present during less than half of the observation time • 2=present for more than half of the observation time • 3=present all the time but suppressible by external stimuli • 4=present all the time and not suppressible by external stimuli. […]

The subject of assay [2] is primary dopaminergic neuronal culture. Put plainly: Primary dopaminergic neuronal culture injured by MPP+, number of TH positive neurons. It counts as cell-based, rat. As to conditions: MPP+ 4 μM, 48H; compound 1 nM to 1 μM added 1H before intoxication. The text has this: Pregnant female Wistar rats of 15 days gestation was euthanized by cervical dislocation and the foetuses was removed from the uterus. Hereafter, the embryonic midbrains was removed and placed in ice-cold medium of Leibovitz containing 2% of Penicillin-Streptomycin and 1% of bovine serum albumin (BSA). Only the ventral portions of the mesencephalic flexure were used for the cell preparations as this is the region of the developing brain rich in dopaminergic neurons. The midbrains were dissociated by trypsinisation for 20 min at 37° C. (Trypsin EDTA 1X). The reaction was stopped by the addition of DULBECCO′S MODIFIED Eagle's medium (DMEM) containing DNAse I grade II (0.1 mg/ml) and 10% foetal calf serum (FCS). Cells were then mechanically dissociated by 3 passages through a 10 ml pipette. Cells was then centrifuged at 180×g for 10 min at 4° C. on a layer of BSA (3.5%) in L15 medium. The supernatant was discarded, and the cells of pellet were re-suspended in a defined culture medium consisting of Neurobasal supplemented with B27 (2%), L-glutamine (2 mM) and 2% of PS solution and 10 ng/ml BDNF and 1 ng/ml of Glial cell-derived neurotrophic factor (GDNF). Viable cells were counted in a Neunauer cytometer using the tryphan blue exclusion test. […]
Half of the medium was changed every 2 days with fresh medium. […] Following an additional 48H of incubation, the number of TH positive neurons were counted. […]

In the case of `CN1C2CCCC1CN(c1cccnc1)C2` [9-methyl-3-pyridin-3-yl-3,9-diaza-bicyclo[3.3.1]nonane], the “L-dopa-induced AIMs, follow-up dose” value in assay [1] (3.0 mg/kg) was “did not further decrease L-dopa-induced AIMs”. For the same compound, the “L-dopa-induced AIMs” value in assay [1] (0.1, 0.3, 1.0 mg/kg sc 30 minutes prior to L-dopa (8 mg/kg)) is “significant, dose-related decrease in AIMs with the 0.3 and 1.0 mg/kg doses reaching statistical significance relative to saline controls”. The “neuroprotective effect, number of TH positive neurons” value in assay [2] is reported as “concentration-dependent neuroprotective effect”.

(Values after patent US20180311238A1, “Selective Agonist Of a6 Containing nAChRs” (Saniona A/S, priority 2017, published 2018).)
